The experiment deals with MDA-MB-468 breast. Nature of the experiment: NCI tumour cell line growth inhibition, 48 h.

Values joined by “and” are separate entries in the source; they are usually repeats but may differ in a detail not shown here. Equal values may be shown once.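 A five-concentration, 48-hour dose response in 96-well plates underlies each endpoint, interpolated linearly between surrounding concentrations. Here, GI50 denotes the concentration required for 50% inhibition of growth. TGI denotes the concentration required for complete inhibition of growth.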

Drawing on PubChem BioAssay (NCI), this text covers GI50 and TGI for 34 compounds.

Take `CNC(=O)c1cncc(/C=C/c2ccccc2Cl)c1`: the GI50 was 9170 nM and the TGI was greater than 25 µM.

Consider `O=P(O)(O)OCC1OC(n2cnc3c(NCc4ccccc4)ncnc32)C(O)C1O` (stereo not drawn), for which the GI50 was 925 nM and the TGI came to 4.12 µM.

As to `Nc1cccc2c1C(=O)c1cccc(NC(=O)c3ccccc3)c1C2=O`, the GI50 is 577 nM and the TGI came to 7.03 µM.

Regarding `CC/C(=C/c1ccc(OC)cc1OC)[N+](=O)[O-]`, the GI50 is 2020 nM and the TGI was determined as 4.3 µM.

For the compound `COC(=O)N[C@H]1CCc2c(Cl)c(OC)c(OC)c(OC)c2-c2ccc(SC)c(=O)cc21`, the GI50 is less than 10 nM and the TGI stood at 23.1 µM.

Turning to `CCCCn1c(=O)c(/C=C/C(=O)/C=C/c2cc3ccccc3n(CCCC)c2=O)cc2ccccc21`, the GI50 was 1640 nM and the TGI was determined as 3.76 µM.

Consider `CCn1c(-c2nonc2N)nc2c(N3CCCC3)nccc21`, for which the GI50 was 8920 nM and the TGI was greater than 25 µM.

Take `O=c1[nH]c(=O)n(C2CC(O)C(CO)O2)cc1C(F)(F)F` (stereo not drawn): the GI50 is greater than 85400 nM and the TGI was greater than 100 µM.

Consider `CC[C@H](C)[C@H](NC(=O)c1cccn1C)C(=O)N(C)[C@H](C[C@@H](OC(C)=O)c1nc(C(=O)N[C@@H](Cc2ccccc2)C[C@H](C)C(=O)OC)cs1)C(C)C`, for which the GI50 was 68.3 nM and the TGI came to 10.8 µM.

For `COc1cc2nccc(Oc3ccc(NC(=O)c4cn(C(C)C)c(=O)n(-c5ccc(F)cc5)c4=O)cc3F)c2cc1OC`, the GI50 was greater than 100000 nM and the TGI was greater than 100 µM.

Take `COc1ccc2[nH]c(C(=O)OCc3ccc4c(Cl)cc(Cl)c(O)c4n3)cc2c1`: the GI50 was 1360 nM and the TGI was found to be 2.77 µM.

Regarding `C[N+](C)=c1ccc2nc3c(cc(NCCCNc4cc5oc6cc(=[N+](C)C)ccc-6nc5c5ccccc45)c4ccccc43)oc-2c1`, the GI50 is 193 nM and the TGI was 1.35 µM.

For `CS(=O)(=O)N(c1cc(-c2ccc3ncnc(Nc4ccc(F)c(Cl)c4)c3c2)cnc1Cl)S(C)(=O)=O`, the GI50 was 467 nM and the TGI was determined as 2.55 µM.

Regarding `CC(C)c1ccc(NC(=O)Cc2ccc(Nc3ncnc4cc(-c5cnn(CCN(C)C)c5)ccc34)cc2)cc1`, the GI50 was 1340 nM and the TGI was determined as 3.72 µM.

As for `Cc1ccc(C(=O)NC2CC2)cc1-c1ccc2[nH]ncc2c1`, the GI50 is greater than 23000 nM and the TGI is greater than 25 µM.

As for `COc1ccc2nc3cc(Cl)ccc3c(Nc3cc(CN4CCCC4)c(O)c(CN4CCCC4)c3)c2n1`, the GI50 is 1330 nM and the TGI was determined as 2.76 µM.

For the compound `O=C1c2cc3c(cc2-c2c1c1ccc(Cl)cc1c(=O)n2CCCn1ccnc1)OCO3`, the GI50 was less than 10 nM and the TGI is 0.0144 µM.

Turning to `COC[C@]12CCC(C)(C)C[C@H]1C1=CC[C@@H]3[C@@]4(C)CCCNC(C)(C)[C@@H]4CC[C@@]3(C)[C@]1(C)CC2`, the GI50 was 1530 nM and the TGI worked out at 3.23 µM.

As to `c1ccc2c(c1)cc1ccc3cccc4ccc2c1c34`, the GI50 was 157 nM and the TGI was determined as 0.312 µM.

Consider `C=C1CCC2C3(C)COC(c4ccccc4Cl)OC3CCC2(C)C1/C=C/C1=CCOC1=O` (stereo not drawn), for which the GI50 is 4960 nM and the TGI is greater than 100 µM.

Take `C=C(C)[C@@H]1CC[C@]2(C(=O)NS(=O)(=O)c3ccccc3)CC[C@]3(C)[C@H](CC[C@@H]4[C@@]5(C)CC[C@H](OC(=O)NS(=O)(=O)c6ccccc6)C(C)(C)[C@@H]5CC[C@]43C)[C@@H]12`: the GI50 was 2220 nM and the TGI was found to be 10.2 µM.

Consider `CCn1c2ccccc2c2cc(C(=O)c3ccc(C)c4ccccc34)ccc21`, for which the GI50 is 291 nM and the TGI worked out at 0.918 µM.

On to `COc1cc(C(=O)c2cocc2C(=O)c2ccc3c(c2)OCO3)cc(OC)c1OC`, for which the GI50 is 4050 nM and the TGI was greater than 100 µM.

For the compound `O=C(/C=C/C12c3ccccc3C(c3ccccc31)C1C(=O)NC(=O)C12)c1ccccc1` (stereo not drawn), the GI50 was 1720 nM and the TGI was 3.68 µM.

Turning to `CCN(CC)CCCCNc1c2ccc(Cl)cc2nc2ccc(OC)cc12`, the GI50 was 317 nM and the TGI was 1.83 µM.

As for `COc1ccc(S(=O)(=O)N(C(C)=O)c2ccccc2/C=C/c2cc[n+]([O-])cc2)cc1`, the GI50 was 461 nM and the TGI was greater than 10 µM.

With `CNC(=O)c1ccccc1Nc1nc(Nc2ccc3c(c2OC)CCC[C@H](N2CCN(CCO)CC2)C3)ncc1Cl`, the GI50 is 1210 nM and 696 nM; the TGI is 3.33 µM and 2.5 µM.

`CC(C)(C)OC(=O)N[C@@H](Cc1ccccc1)C(=O)N(Cc1ccccc1)C1(C(=O)NCc2ccccc2)CCN(Cc2ccccc2)CC1`: the GI50 is 1620 nM and the TGI is 5.91 µM.

`Cc1cc(O)c(-c2ccc([C@@H](C)CN(C)C)cc2)c2c1[nH]c(=O)c1sccc12`: the GI50 is 514 nM and the TGI is 3.94 µM.

`COc1cc(NCCCCCN=C(N)NC(N)=NC(C)C)c2ncccc2c1`: the GI50 is 90.3 nM and the TGI amounted to 0.594 µM.

As for `O=C(Nc1cccc(C(F)(F)F)c1)Oc1ccc(Cl)c2cccnc12`, the GI50 is 1790 nM and the TGI was 4.28 µM.

For `ClC(Cl)c1nc(-c2cccs2)n2nc(-c3ccccc3)cc2n1`, the GI50 is 224 nM and the TGI is 0.688 µM.

Consider `COC(=O)[C@H](Cc1cn(C)cn1)NC(=O)[C@H](Cc1ccccc1)NC(=O)Nc1cc(C(F)(F)F)cc(C(F)(F)F)c1`, for which the GI50 is 4400 nM and 4230 nM; the TGI was found to be 17.7 µM.

In the case of `CC(C)(C)OC(=O)Nc1ccc2c(c1)C(NC(=O)Nc1cccc(C#N)c1)CC(C)(C)O2` (stereo not drawn), the GI50 is 381 nM and the TGI turned out to be 9.9 µM.
